Values quoted from earlier work in patent publication US20100280059A1, “COMPOSITIONS COMPRISING AN ANTIHISTAMINE, A[…] DE[…] EXTENDED RELEASE FORMULATIONS” (Atley Pharmaceuticals, Inc., priority 2009, published 2010).
Read-outs that look alike come from different tables or passages of the source.

What was measured:
[1] = not given; remark: listed apart in the source
[2] = not given; remark: listed apart in the source
[3] = single IR oral dose of 10 mg HC, 5 male human subjects

Q: For `CN(C)CCC(c1ccc(Cl)cc1)c1ccccn1` (stereo not shown) [CPM, chlorpheniramine], which “excreted in the feces” value (in vivo) is on record?
A: Less than 1%

Q: And the “renal elimination as share of total excretion” value (in vivo)?
A: approximately 50%

Q: What about the “excreted in the urine” value (metabolism to monodesmethyl and didesmethyl compounds) of the same molecule?
A: up to 26%

Q: Which “share of total excretion occurring in the first 24 hours” value ([1]; after a single oral dose) does the source give for `COc1ccc2c3c1O[C@H]1C(=O)CC[C@H]4[C@@H](C2)N(C)CC[C@]314` [HC, hydrocodone] here?
A: About 70%

Q: And the “elimination half-life of the parent-compound” value ([1]; in vivo)?
A: 3.8 to 4.5 h

Q: What about the Tmax [1, 3] of the same molecule?
A: approximately 1.3±0.3 hours

Q: What about the “mean peak serum concentration” value [1, 3] of the same molecule?
A: 23.6 ± 5.2 ng/mL

Q: What does the source list for `CN[C@@H](C)[C@@H](O)c1ccccc1` [PSE, pseudoephedrine]?
A: half-life ([2]; affected by urinary pH): 9 to 16 h; Tmax ([2]; following administration): 1.5 to 2.4 h; dose excreted unchanged in the urine ([2]; within 24 hours of dosing): up to 90%
